Laboratory results: the NIST ThermoML archive (doi:10.1021/je030231w)
Several values for one entry are separate records, joined by “and”; a condition that tells them apart may be missing. Equal entries are not always repeated. ± gives the expanded uncertainty stated by the source.

Columns and labels:
[1] = Crystal, Calculated from knudsen effusion weight loss
[2] = mn = molality of the nth substance listed, in mol/kg; details: 298 K, 101.3 kPa, Liquid

vapor or sublimation pressure ([1]; 374.94 K) [kPa]	vapor or sublimation pressure ([1]; 378.75 K) [kPa]	vapor or sublimation pressure ([1]; 380.67 K) [kPa]	vapor or sublimation pressure ([1]; 382.54 K) [kPa]	vapor or sublimation pressure ([1]; 384.45 K) [kPa]	vapor or sublimation pressure ([1]; 386.35 K) [kPa]	vapor or sublimation pressure ([1]; 388.25 K) [kPa]	vapor or sublimation pressure ([1]; 390.15 K) [kPa]	mass density ([2]; m1 = 0.01034) [kg/m3]	mass density ([2]; m1 = 0.01092) [kg/m3]	mass density ([2]; m1 = 0.01101) [kg/m3]	mass density ([2]; m1 = 0.01122) [kg/m3]	mass density ([2]; m1 = 0.01187) [kg/m3]	mass density ([2]; m1 = 0.01292) [kg/m3]	SMILES	vapor or sublimation pressure ([1]; 373.02 K)	vapor or sublimation pressure ([1]; 392.01 K)
1.376e-05 ± 7e-07	2.012e-05 ± 1e-06	2.417e-05 ± 1.2e-06	2.882e-05 ± 1.5e-06	3.348e-05 ± 1.7e-06	3.983e-05 ± 2e-06	4.61e-05 ± 2.3e-06	5.586e-05 ± 2.8e-06							O=c1[nH]cc(C(F)(F)F)c(=O)[nH]1 [5-(trifluoromethyl)uracil]	1.187e-05 ± 6e-07 kPa and 1.168e-05 ± 5.9e-07 kPa	6.401e-05 ± 3.2e-06 kPa and 6.45e-05 ± 3.2e-06 kPa
								997.88 ± 0.2	997.938 ± 0.2	997.946 ± 0.19	997.96 ± 0.19	998.017 ± 0.19	998.089 ± 0.18	O=c1[nH]cc(C(F)(F)F)c(=O)[nH]1 [5-(trifluoromethyl)uracil] + O		
